# Experimental data: patent US9446019B2, “Sparstolonin B based pharmaceutical agent for neuroblastoma treatment” (University of South Carolina, priority 2013, dated 2016)
# What was measured:
# [1] = system: human neuroblastoma cell lines (SH-SY5Y, SKNF-1, NGP, IMR-32 and SK-N-BE(2) cells); assay: MTT cell viability assay; type: cell-based
# From the text: (§1) Human neuroblastoma cell lines (SH-SY5Y, IMR-32, SK-N-BE(2) and SKNF-1 cells) were obtained from The American Type Culture Collection (ATCC; Manassas, Va.), and NGP cells were kind gift from Garrett M. Brodeur (The Children's Hospital of Philadelphia, Philadelphia, Pa.). All cell lines were maintained in complete Dulbecco's Modified Eagle's Medium (DMEM) supplemented with 10% fetal bovine serum (FBS; Atlanta Biologicals, Lawrenceville, Ga.) and 1× antibiotic-antimycotic solution (containing 100 U/ml penicillin, 100 μg/ml streptomycin and 0.25 μg/ml amphotericin B), and grown at 37° C. in a humidified incubator with 5% CO2. Stock solution of SsnB was prepared in dimethyl sulfoxide (DMSO). Cells treated with different concentrations of SsnB in DMEM with 10% FBS were grown for subsequent days. Cells treated with equal volume of DMSO were used as control.
# The viability of SsnB-treated cells was determined by MTT assay following manufacturer's instructions (Roche diagnostics corporation, Indianapolis, Ind.). Briefly, cells (1×10^4 cells/well) grown in 96-well cell culture plate were incubated with or without SsnB in 100 μl of complete culture medium with 10% FBS. After treatments, cells were incubated with 10 μl of MTT reagent for 4 h and then incubated overnight in solubilization buffer (100 μl) at 37° C. Absorbance of the formazan product was read at 575 nm in spectramax spectrophotometer (Molecular Devices, Sunnyvale, Calif.). A reference wavelength of 690 nm was used to detect background. The measured absorption directly correlated with the number of viable cells in culture. The experiments were performed in triplicate and repeated at least three times.
# MTT assay was carried out to examine the effects of SsnB on viability of all the above listed neuroblastoma cells. After 2 days (SH-SY5Y and IMR-32), 3 days (NGP cells) or 4 days (SKNF-1 and SK-N-BE(2) cells) treatment with SsnB (1, 5, 10 and 20 μM), MTT cell viability assays were performed.
# neuroblastoma cell lines = assay: Cell cycle analysis by flow cytometry, all lines together; type: cell-based, human
# Protocol: The cell cycle progression was determined by flow cytometer analysis. Neuroblastoma cells were treated with SsnB or DMSO in DMEM with 10% FBS. Cells were collected after trypsinization with trypsin-EDTA solution (Atlanta Biologicals) and washed with 1× phosphate buffered saline (PBS). Approximately 1×10^6 cells were suspended in 300 μl of ice-cold 1×PBS, fixed by adding 700 μl of chilled absolute ethanol (to make final ethanol concentration 70%) drop wise and incubated for overnight at −20° C. Cells were pelleted at 1000×rpm for 5 min at 4° C., washed with 1×PBS for 3 times and stained with propidium iodide (Sigma-Aldrich, St. Louis, Mo.) by adding 1 ml of propidium iodide staining solution (containing 20 μg/ml propidium iodide and 10 μg/ml DNase-free RNase A in 0.1% Triton X-100/PBS) for 1 h on ice in dark. Samples were subjected to fluorescence-activated cell sorting analyses utilizing Beckman Coulter flow cytometer (Beckman Coulter, Indianapolis, Ind.). A minimum of 10,000 events were analyzed in each experiment.
# To test whether SsnB-induced cell growth inhibition occurs through cell cycle arrest, cell cycle distribution was analyzed by flow cytometry after DNA staining with propidium iodide.
# [2] = system: human neuroblastoma cell lines (SH-SY5Y, SKNF-1, NGP, IMR-32 and SK-N-BE(2) cells); assay: Cell morphology by phase contrast microscopy; type: cell-based
# From the text: as §1
# To test the inhibitory effects of SsnB on neuroblastoma cell survival, human neuroblastoma cell lines of different genetic background (SH-SY5Y, SKNF-1, NGP, IMR-32 and SK-N-BE(2) cells) were treated with 1 μM, 5 μM, 10 μM or 20 μM concentration of SsnB under in vitro conditions. Following SsnB treatments, neuroblastoma cell were grown and were photographed under light microscope to evaluate the cell morphology.
# neuroblastoma cells = assay: TUNEL assay for DNA fragmentation in cells; type: cell-based, human
# From the text: Increased levels of ROS are known to induce oxidative stress which in turn cleaves DNA that leads to cell death. SsnB-induced DNA fragmentation in neuroblastoma cells was examined by terminal deoxynucleotidyl transferase dUTP nick end labeling (TUNEL) assay. In this assay, nicked DNA is identified by the addition of fluorophore-labeled dUTPs by enzyme terminal deoxynucleotidyl transferase (TdT) to the terminal ends of damaged DNA in apoptotic cells. The TUNEL-positive cells were quantitated by ImageJ programme and plotted. […] However, such TUNEL-positive cells were not detected in DMSO- or SsnB (1 μM)-treated cells.
# [3] = system: SH-SY5Y and SK-N-BE(2) cells; assay: Hanging-drop assay for spheroid formation; type: cell-based, human; conditions: day 12
# Protocol: 3-D in vitro hanging drop assay was carried out to detect the SsnB effect in neuroblastoma spheroid formation. Neuroblastoma cells were prepared as single cell suspension in complete culture medium (DMEM+10% FBS) without or with SsnB (1 and 10 μM). Twenty microliter drops of each prepared cell suspension containing 20,000 cells/drop were pipetted into the inner side of the lid of a 60 mm diameter tissue culture dish. The lid was gently inverted and placed on top of the culture dish filled with 5 ml of sterile 1×PBS to humidify the culture chamber. The drops were incubated under tissue culture conditions (at 37° C. and 5% CO2) allowing the cells to form aggregate at the base of the droplet. The cells in each droplet were photographed using Olympus SZX2 stereo microscope (Olympus America Inc., Center Valley, Pa.).
# As SsnB inhibited the formation of neuroblastoma colony in anchorage-independent agarose gel assay, the ability of SsnB to inhibit the initiation of neuroblastoma tumors was tested in a hanging drop assay method. In the hanging drop assay the cells under the force of gravity and surface tension start accumulating at the bottom of the hanging drop and join together to form a spheroid. […]
# [4] = Homo sapiens, MTT, 2 days (SH-SY5Y, IMR-32), 3 days (NGP), 4 days (SKNF-1, SK-N-BE(2)), range over the cell lines
structure (smiles),measurement,setting,value
"O=c1occ2c3c(ccc(O)c13)Oc1ccc(O)cc1-2 [SsnB, 8,5′-dihydroxy-4-phenyl-5,2′-oxidoisocoumarin]",IC20,[1]; [4],6 to 8 µM
same,IC50,[1]; [4],10 to 12 µM
same,sensitivity towards SsnB treatment,[1]; NGP cell,moderately sensitive
same,sensitivity towards SsnB treatment,[1]; SH-SY5Y and IMR-32 cells,most sensitive
same,sensitivity towards SsnB treatment,[1]; SKNF-1 and SK-N-BE(2) cell lines,least sensitive
same,cell survival vs DMSO,"[1]; SsnB 1 μM or 5 μM, p>0.05",No significant difference in cell survival
same,neuroblastoma cell death,"[1]; SsnB 10 μM alone, MTT, range over cell lines (FIG. 5A)",40-60%
same,cell viability vs DMSO,"[1]; SsnB at and above 10 μM, p<0.05",significantly reduced the viability
same,cell cycle progression vs DMSO,neuroblastoma cell lines; SsnB 1 μM,did not affect cell cycle progression
same,G0/G1 phase cells,neuroblastoma cell lines; SsnB 10 μM,decrease in G0/G1 phase cells
same,"cell morphology (rounded cells, indication of cell death) vs DMSO","[2]; SsnB 10 μM and above, 2, 3 or 4 days depending on line",changed the morphology
same,morphological changes,"[2]; SsnB 1 or 5 μM, any cell line tested",not significant
same,number of TUNEL-positive cells vs control,"neuroblastoma cells; SsnB 1 μM, nonsignificant",almost similar to DMSO-treated samples
same,number of TUNEL-positive cells vs control,"neuroblastoma cells; SsnB 10 μM, all neuroblastoma cells",significantly higher
same,spheroid formation,[3]; SsnB 1 μM,compact cell clusters were formed
same,spheroid formation,[3]; SsnB 10 μM,unable to aggregate to form compact spheroids
